In patent US6093732A, “4-hydroxyquinoline-3-carboxamides and hydrazides as antiviral agents” (Pharmacia & Upjohn Company, priority 1998, dated 2000):

Assays:
Format in all cases: biochemical
HCMV polymerase = biological target: T1, HCMV polymerase (Human cytomegalovirus, UniProt P08546); experiment: HCMV polymerase scintillation proximity assay (SPA), modified version; settings: CMV polymerase; Table 1; modified assay with 4.5 mM DTT, compounds in 100% DMSO; read-out: Antiviral Selective Polymerase IC50 Values, CMV
T1 construct: made in house; host or cells: recombinant baculovirus-infected SF-9 cells
T1 sequence (P08546 whole entry): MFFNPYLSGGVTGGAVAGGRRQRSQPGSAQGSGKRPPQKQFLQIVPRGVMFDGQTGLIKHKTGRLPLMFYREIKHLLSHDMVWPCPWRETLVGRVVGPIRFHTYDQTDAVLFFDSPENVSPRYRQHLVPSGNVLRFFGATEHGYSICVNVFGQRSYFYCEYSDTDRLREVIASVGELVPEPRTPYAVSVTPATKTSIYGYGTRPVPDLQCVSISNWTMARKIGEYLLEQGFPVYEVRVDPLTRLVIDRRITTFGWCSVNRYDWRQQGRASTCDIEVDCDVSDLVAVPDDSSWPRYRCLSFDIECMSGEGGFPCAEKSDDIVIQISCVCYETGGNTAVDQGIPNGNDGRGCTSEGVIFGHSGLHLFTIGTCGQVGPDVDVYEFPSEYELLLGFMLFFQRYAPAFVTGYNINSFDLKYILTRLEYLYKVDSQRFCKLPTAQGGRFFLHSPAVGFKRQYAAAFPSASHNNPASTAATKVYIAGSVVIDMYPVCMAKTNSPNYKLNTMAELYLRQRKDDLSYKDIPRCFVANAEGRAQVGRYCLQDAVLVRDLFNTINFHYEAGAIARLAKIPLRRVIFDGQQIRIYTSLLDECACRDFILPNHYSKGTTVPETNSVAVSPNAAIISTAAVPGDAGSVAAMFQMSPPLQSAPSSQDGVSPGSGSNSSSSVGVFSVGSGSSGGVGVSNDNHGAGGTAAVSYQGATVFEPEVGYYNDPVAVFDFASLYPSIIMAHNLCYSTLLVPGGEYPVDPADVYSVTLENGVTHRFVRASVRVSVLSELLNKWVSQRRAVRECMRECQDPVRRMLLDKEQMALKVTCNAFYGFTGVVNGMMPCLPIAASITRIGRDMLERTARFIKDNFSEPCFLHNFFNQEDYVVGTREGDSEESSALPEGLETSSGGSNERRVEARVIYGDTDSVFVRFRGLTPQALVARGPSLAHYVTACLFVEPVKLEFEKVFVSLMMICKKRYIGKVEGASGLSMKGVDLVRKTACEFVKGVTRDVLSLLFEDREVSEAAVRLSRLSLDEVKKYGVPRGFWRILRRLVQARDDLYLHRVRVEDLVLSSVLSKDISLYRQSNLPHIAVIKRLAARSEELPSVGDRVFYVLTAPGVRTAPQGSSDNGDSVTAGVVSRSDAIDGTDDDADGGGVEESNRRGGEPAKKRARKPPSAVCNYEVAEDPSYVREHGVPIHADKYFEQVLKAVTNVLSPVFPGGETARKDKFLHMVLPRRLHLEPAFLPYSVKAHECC
Procedure, shortened: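 Recombinant polymerase (baculovirus/SF-9) in 5.4 mM HEPES pH 7.5, 11.7 mM KCl, 4.5 mM MgCl2, 0.36 mg/ml BSA, 90 nM 3H-dTTP, ±2 mM CHAPS; started with 6 nM biotinylated poly(dA)-oligo(dT), 25° C or 37° C, EDTA-stopped in linear range (30 min for HCMV). Streptavidin-SPA read; IC50 by linear regression. Modified version: 100% DMSO compound dilution, 4.5 mM DTT added.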

HSV polymerase = HSV polymerase (Human herpesvirus 1, UniProt P04293); experiment: HSV polymerase assay (procedure similar to the HCMV polymerase SPA); settings: Table 1, read-out: Antiviral Selective Polymerase IC50 Values, HSV
Chain of HSV polymerase (P04293 whole entry): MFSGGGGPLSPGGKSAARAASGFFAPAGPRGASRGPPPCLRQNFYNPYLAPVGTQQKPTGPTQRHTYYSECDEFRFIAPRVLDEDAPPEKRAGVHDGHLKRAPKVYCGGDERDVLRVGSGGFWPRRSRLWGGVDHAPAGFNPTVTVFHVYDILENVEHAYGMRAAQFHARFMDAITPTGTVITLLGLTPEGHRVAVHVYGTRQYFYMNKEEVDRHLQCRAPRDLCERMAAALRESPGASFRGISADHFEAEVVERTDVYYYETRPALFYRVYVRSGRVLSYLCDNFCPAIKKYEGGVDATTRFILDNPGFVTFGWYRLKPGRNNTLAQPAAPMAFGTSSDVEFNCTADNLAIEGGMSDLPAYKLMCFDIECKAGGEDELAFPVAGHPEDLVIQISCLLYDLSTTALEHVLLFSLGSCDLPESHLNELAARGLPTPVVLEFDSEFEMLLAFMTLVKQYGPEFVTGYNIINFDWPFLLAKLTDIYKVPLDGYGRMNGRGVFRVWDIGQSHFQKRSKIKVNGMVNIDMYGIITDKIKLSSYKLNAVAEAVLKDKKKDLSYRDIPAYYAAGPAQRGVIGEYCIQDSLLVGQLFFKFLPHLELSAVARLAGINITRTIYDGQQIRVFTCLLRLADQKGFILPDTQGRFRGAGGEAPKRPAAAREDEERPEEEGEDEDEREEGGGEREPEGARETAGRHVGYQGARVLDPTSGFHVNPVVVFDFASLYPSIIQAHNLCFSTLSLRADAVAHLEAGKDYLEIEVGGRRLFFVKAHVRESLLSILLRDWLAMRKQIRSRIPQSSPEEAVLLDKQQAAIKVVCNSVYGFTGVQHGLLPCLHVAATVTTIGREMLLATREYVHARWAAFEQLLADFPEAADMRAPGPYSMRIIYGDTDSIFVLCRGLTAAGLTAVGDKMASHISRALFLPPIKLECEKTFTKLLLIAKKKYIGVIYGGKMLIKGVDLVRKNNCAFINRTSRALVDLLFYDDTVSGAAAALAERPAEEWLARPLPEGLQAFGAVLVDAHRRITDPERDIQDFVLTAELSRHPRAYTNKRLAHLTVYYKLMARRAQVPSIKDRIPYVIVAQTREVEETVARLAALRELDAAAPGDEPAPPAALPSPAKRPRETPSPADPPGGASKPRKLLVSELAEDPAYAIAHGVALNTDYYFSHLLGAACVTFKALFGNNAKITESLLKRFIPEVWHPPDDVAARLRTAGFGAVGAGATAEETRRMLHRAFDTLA
Description: (§1) The HCMV polymerase assay is performed using a scintillation proximity assay (SPA) as described in several references, such as N. D. Cook, et al., Pharmaceutical Manufacturing International, pages 49-53 (1992); K. Takeuchi, Laboratory Practice, September issue (1992); U.S. Pat. No. 4,568,649 (1986); which are incorporated by reference herein. Reactions are performed in 96-well plates. The assay is conducted in 100 μl volume with 5.4 mM HEPES (pH 7.5), 11.7 mM KCl, 4.5 mM MgCl2, 0.36 mg/ml BSA, and 90 nM ^3 H-dTTP. Assays are run with and without CHAPS, (3-[(3-Cholamidopropyl)-dimethylammonio]-1-propane-sulfonate) at a final concentration of 2 mM. HCMV polymerase is diluted in enzyme dilution buffer containing 50% glycerol, 250 mM NaCl, 10 mM HEPES (pH 7.5), 100 μg/ml BSA, and 0.01% sodium azide. The HCMV polymerase, which is expressed in recombinant baculovirus-infected SF-9 cells and purified according to literature procedures, is added at 10% (or 10 μl) of the final reaction volume, i.e., 100 μl. Compounds are diluted in 50% DMSO and 10 μl are added to each well. Control wells contain an equivalent concentration of DMSO. Unless noted otherwise, reactions are initiated via the addition of 6 nM biotinylated poly(dA)-oligo(dT) template/primer to reaction mixtures containing the enzyme, substrate, and compounds of interest. Plates are incubated in a 25° C. or 37° C. H2 O bath and terminated via the addition of 40 μl/reaction of 0.5 M EDTA (pH 8) per well. Reactions are terminated within the time-frame during which substrate incorporation is linear and varied depending upon the enzyme and conditions used, i.e., 30 min. for HCMV polymerase. Ten μl of streptavidin-SPA beads (20 mg/ml in PBS/10% glycerol) are added following termination of the reaction. Plates are incubated 10 min. at 37° C., then equilibrated to room temperature, and counted on a Packard Topcount. Linear regressions are performed and IC50 's are calculated using computer software.
(§2) A modified version of the above HCMV polymerase assay is performed as described above, but with the following changes: Compounds are diluted in 100% DMSO until final dilution into assay buffer. In the previous assay, compounds are diluted in 50% DMSO. 4.5 mM dithiotherotol (DTT) is added to the polymerase buffer. […] Other viral polymerase assays are performed using procedures similar to those described above.

VZV polymerase = VZV polymerase (Varicella-zoster virus, UniProt P09252); experiment: VZV polymerase assay (procedure similar to the HCMV polymerase SPA); settings: Table 1, read-out: Antiviral Selective Polymerase IC50 Values, VZV
Chain of VZV polymerase (P09252 whole entry): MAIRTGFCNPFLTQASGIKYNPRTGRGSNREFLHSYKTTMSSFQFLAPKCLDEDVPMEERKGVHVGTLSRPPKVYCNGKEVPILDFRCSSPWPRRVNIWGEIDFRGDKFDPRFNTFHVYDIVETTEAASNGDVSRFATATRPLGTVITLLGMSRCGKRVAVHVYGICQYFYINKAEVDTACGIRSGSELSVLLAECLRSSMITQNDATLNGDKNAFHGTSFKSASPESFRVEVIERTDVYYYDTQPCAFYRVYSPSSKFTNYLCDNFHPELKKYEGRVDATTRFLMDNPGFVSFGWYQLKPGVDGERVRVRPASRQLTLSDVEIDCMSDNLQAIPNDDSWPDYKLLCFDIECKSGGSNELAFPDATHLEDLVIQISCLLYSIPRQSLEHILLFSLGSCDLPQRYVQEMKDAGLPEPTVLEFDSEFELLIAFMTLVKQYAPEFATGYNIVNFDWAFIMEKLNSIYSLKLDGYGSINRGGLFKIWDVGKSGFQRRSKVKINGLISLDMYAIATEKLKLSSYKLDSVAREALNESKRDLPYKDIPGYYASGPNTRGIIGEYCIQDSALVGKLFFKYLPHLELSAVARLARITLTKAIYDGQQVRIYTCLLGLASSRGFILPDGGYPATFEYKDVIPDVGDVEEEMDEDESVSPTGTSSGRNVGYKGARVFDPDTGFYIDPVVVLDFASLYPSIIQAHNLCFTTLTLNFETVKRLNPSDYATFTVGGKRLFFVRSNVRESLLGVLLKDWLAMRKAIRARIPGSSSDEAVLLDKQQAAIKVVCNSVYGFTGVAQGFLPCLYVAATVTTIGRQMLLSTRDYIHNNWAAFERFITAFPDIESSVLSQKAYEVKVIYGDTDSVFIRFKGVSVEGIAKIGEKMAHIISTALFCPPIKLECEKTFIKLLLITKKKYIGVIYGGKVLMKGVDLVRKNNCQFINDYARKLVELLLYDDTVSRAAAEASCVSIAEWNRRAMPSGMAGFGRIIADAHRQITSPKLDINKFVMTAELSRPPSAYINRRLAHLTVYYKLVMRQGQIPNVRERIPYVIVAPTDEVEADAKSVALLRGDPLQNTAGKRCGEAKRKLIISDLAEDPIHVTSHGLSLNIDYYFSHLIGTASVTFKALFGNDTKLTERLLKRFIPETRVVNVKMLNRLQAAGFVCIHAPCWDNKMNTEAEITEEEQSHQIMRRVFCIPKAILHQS
Description: as §1, §2

Compound | IC50 (HCMV polymerase) | IC50 (HSV polymerase) | IC50 (VZV polymerase)
COc1cc(C#CCO)cc2c(O)c(C(=O)NCc3ccc(Cl)cc3)cnc12 [Example 118, N-(4-Chlorobenzyl)-4-hydroxy-6-(3-hydroxy-1-propynyl)-8-methoxy-3-quinolinecarboxamide] | 670 nM | 660 nM | 200 nM
COCC#Cc1cc(OC)c2ncc(C(=O)NCc3ccc(Cl)cc3)c(O)c2c1 [Example 119, N-(4-Chlorobenzyl)-4-hydroxy-8-methoxy-6-(3-methoxy-1-propynyl)-3-quinolinecarboxamide] | 1500 nM | 730 nM | 570 nM
COc1cc(CCCO)cc2c(O)c(C(=O)NCc3ccc(Cl)cc3)cnc12 [Example 120, N-(4-Chlorobenzyl)-4-hydroxy-6-(3-hydroxypropyl)-8-methoxy-3-quinolinecarboxamide] | 270 nM | 250 nM | 80 nM
O=C(NCc1ccc(Cl)cc1)c1cnc2c(OCCO)cc(CCCO)cc2c1O [Example 124, N-(4-Chlorobenzyl)-4-hydroxy-8-(2-hydroxyethoxy)-6-(3-hydroxypropyl)-3-quinolinecarboxamide] | 250 nM | 600 nM | 390 nM
CC(C)(CCO)c1ccc2ncc(C(=O)NCc3ccc(Cl)cc3)c(O)c2c1 [Example 125, N-(4-Chlorobenzyl)-4-hydroxy-6-(3-hydroxy-1,1-dimethylpropyl)-3-quinolinecarboxamide] | 870 nM | 2500 nM | 1700 nM
N#C/C=C/c1cc(F)c2ncc(C(=O)NCc3ccc(Cl)cc3)c(O)c2c1 [Example 133, N-(4-Chlorobenzyl)-6-[(E)-2-cyanoethenyl]-8-fluoro-4-hydroxy-3-quinolinecarboxamide] | 4000 nM | 3200 nM | 2200 nM
O=C(NCc1ccc(Cl)cc1)c1cnc2ccc(C#CCO)cc2c1O [Example 134, N-(4-Chlorobenzyl)-4-hydroxy-6-(3-hydroxy-1-propynyl)-3-quinolinecarboxamide] | 900 nM | 720 nM | 190 nM
O=C(NCc1ccc(Cl)cc1)c1c[nH]c2ccc(/C=C/CO)cc2c1=O [Example 136, N-[(4-Chlorophenyl)methyl]-1,4-dihydro-6-[(1E)-3-hydroxy-1-propenyl]-4-oxo-3-quinolinecarboxamide] | 680 nM | 700 nM | 390 nM
N#CCCc1cc(F)c2ncc(C(=O)NCc3ccc(Cl)cc3)c(O)c2c1 [Example 138, N-(4-Chlorobenzyl)-6-(2-cyanoethyl)-8-fluoro-4-hydroxy-3-quinolinecarboxamide] | 4700 nM | 3500 nM | 2000 nM
O=C(NCc1ccc(Cl)cc1)c1cnc2cc(CCCCO)ccc2c1O [Example 140, N-(4-Chlorobenzyl)-4-hydroxy-7-(4-hydroxybutyl)-3-quinolinecarboxamide] | 1400 nM | 1700 nM | 1000 nM
CS(=O)(=O)OCCCc1cc(F)c2ncc(C(=O)NCc3ccc(Cl)cc3)c(O)c2c1 [Example 142, 3-(3-([(4-Chlorobenzyl)amino]carbonyl}-8-fluoro-4-hydroxy-6-quinolinyl)propyl methanesulfonate] | 3800 nM | 2900 nM | 2100 nM
O=C(NCc1ccc(Cl)cc1)c1cnc2ccc(CCCO)cc2c1O [Example 144, N-(4-Chlorobenzyl)-4-hydroxy-6-(3-hydroxypropyl)-3-quinolinecarboxamide] | 280 nM | 280 nM | 70 nM
O=C(CBr)OCCCc1cc(F)c2ncc(C(=O)NCc3ccc(Cl)cc3)c(O)c2c1 [Example 145, 3-(3-{[(4-Chlorobenzyl)amino]carbonyl}-8-fluoro-4-hydroxy-6-quinolinyl)propyl 2-bromoacetate] | 2900 nM | 3500 nM | 2500 nM
CN(C)CC(=O)OCCCc1cc(F)c2ncc(C(=O)NCc3ccc(Cl)cc3)c(O)c2c1 [Example 148, 3-(3-{[(4-Chlorobenzyl)amino]carbonyl}-8-fluoro-4-hydroxy-6-quinolinyl)propyl 2-(dimethylamino)acetate] | 2400 nM | 1400 nM | 1000 nM
CC(O)CCc1ccc2ncc(C(=O)NCc3ccc(Cl)cc3)c(O)c2c1 (stereo not drawn) [Example 157, N-(4-Chlorobenzyl)-4-hydroxy-6-(3-hydroxybutyl)-3-quinolinecarboxamide] | 920 nM | 1800 nM | 890 nM
O=C(NCc1ccc(Cl)cc1)c1cnc2c(F)cc(F)c(F)c2c1O [Example 168, N-[(4-Chlorophenyl)methyl]-5,6,8-trifluoro-4-hydroxy-3-quinolinecarboxamide] | 10000 nM | 8400 nM | 4100 nM
O=C(NCc1ccc(Cl)cc1)c1cnc2ccc(-c3cccs3)cc2c1O [Example 178, N-(4-Chlorobenzyl)-4-hydroxy-6-(2-thienyl)-3-quinolinecarboxamide] | 150 nM | 800 nM | 640 nM
O=C(NCc1ccc(Cl)cc1)c1cnc2ccc(OCCO)cc2c1O [Example 179, N-(4-Chlorobenzyl)-4-hydroxy-6-(2-hydroxyethoxy)-3-quinolinecarboxamide] | 1800 nM | 1400 nM | 660 nM
O=C(NCc1ccc(Cl)cc1)c1cnc2ccc(CN3CCOCC3)cc2c1O [Example 191, N-(4-Chlorobenzyl)-4-hydroxy-6-(4-morpholinylmethyl)-3-quinolinecarboxamide] | 500 nM | 630 nM | 640 nM
